From patent US20090130759A1, “Culture Medium Containing Kinase Inhibitor, and Use Thereof” (The University Court of the University of Edinburgh, priority 2005, published 2009)

What was measured:
[1] = test system: mouse and human ES cells; assay: Attempt to repeat reported effects of GSK3 inhibitor on ES cells (Sato et al); format: cell-based; conditions: attempted repeat of published results
Description: Sato N, et al, Nat. Med. 2004, January 10(1) pp 55-63 describe the effects of a Glycogen Synthase Kinase 3 (GSK3) inhibitor, 6-bromoindirubin-3′-oxime, on mouse and human ES cells in serum containing medium. These effects, however, were observed only over a very short time frame, too short for firm conclusions to be drawn, and the influence of unknown factors in the undefined media used in that study may be significant.
Instead, ES cells died or differentiated in GSK-3β inhibitors alone.

[2] = test system: mouse ES cells; assay: Self-renewal culture of mouse ES cells with GSK3 inhibitor and gp130 signalling (LIF); format: cell-based; conditions: for promotion of self renewal of ES cells: GSK3 inhibitor used in ES cell culture
Protocol: (§1) Mouse and human ES cells were grown under various conditions, using N2B27 medium unless otherwise stated and in the presence or absence of the GSK-3β inhibitors CHIR99021, AR-AO144-18, SB216763 and SB415286.
N2 100× stock solution. For 10 ml: mix 1 ml insulin (final concentration 2.5 mg/ml) with 1 ml apo-transferrin (final concentration 10 mg/ml), 0.67 ml BSA (final concentration 5 mg/ml), 33 μl progesterone (final concentration […]), 100 μl putrescine (final concentration 1.6 mg/ml), 10 μl sodium selenite (final concentration 3 μM) and 7.187 ml DMEM/F12. Store at 4° C. and use within 1 month.
DMEM/F12-N2 medium: to 100 ml of DMEM/F12, add 1 ml of N2 100× stock solution. The final concentration of each component of N2 in the DMEM/F12 medium is: insulin, 25 μg/ml; apo-transferrin, 100 μg/ml; progesterone, 6 ng/ml; putrescine, 16 μg/ml; sodium selenite, 30 nM; BSA 50 μg/ml. Store at 4° C. and use within 1 month.
Neurolbasal/B27 medium: to 100 ml of Neurolbasal™ Medium, add 2 ml of B27 and 0.5-1 ml of 200 mM L-glutamine. Store at 4° C. and use within 1 month.
(§2) N2B27 medium: mix DMEM/F12-N2 medium with Neurolbasal/B27 medium in the ratio of 1:1. Add β-mercaptoethanol to a final concentration of 0.1 mM from the 0.1M stock. Store at 4° C. and use within 1 month.

[3] = test system: GSK3; conditions: cited from earlier work
[4] = test system: human ES cells; assay: Human ES cell self-renewal in N2B27 medium on feeder cells; format: cell-based
Protocol: as §2
a) N2B27 medium with bFGF (10 ng/ml) and grown on feeder cells (HS27 human foreskin fibroblasts); and b) the same as a) but adding BMP4 (5 ng/ml) and LIF (10 ng/ml) as well as bFGF.

[5] = test system: human ES cells; assay: Feeder-free, conditioned medium-free culture of human ES cells after forced expression of an Eras gene; format: cell-based
Protocol: as §1, §2
a) in N2B27 medium with bFGF, grown on laminin, fibronectin, vitronectin or matrigel; b) the same as a) but adding BMP4 (5 ng/ml) as well as bFGF; and c) the same as a) but adding a GSK-3β inhibitor as well as bFGF.

[6] = N2B27, feeder cells, BMP4 (5 ng/ml) and LIF (10 ng/ml) added as well as bFGF

Molecule: O=C1Nc2cc(Br)ccc2/C1=C1/Nc2ccccc2/C1=N\O [6-bromoindirubin-3′-oxime]
- effects on mouse and human ES cells versus those described by Sato et al [1]: effects opposite to those described

Molecule: CHIR 98014
- overall result of use in ES cell culture [2]: Good results
- promotion of self renewal of ES cells [2]: promote self renewal of ES cells
- specificity for GSK3 [3]: specific for GSK3

Molecule: COc1ccc(CNC(=O)Nc2ncc([N+](=O)[O-])s2)cc1 [AR-AO144-18]
- promotion of self renewal of ES cells [2]: promote self renewal of ES cells

Molecule: Cn1cc(C2=C(c3ccc(Cl)cc3Cl)C(=O)NC2=O)c2ccccc21 [SB216763]
- promotion of self renewal of ES cells [2]: promote self renewal of ES cells

Molecule: LIF: gp130 receptor binding cytokine
- sustaining human ES cell self-renewal [4, 6]: could sustain human ES cell self-renewal

Molecule: Cc1c[nH]c(-c2cnc(NCCNc3ccc(C#N)cn3)nc2-c2ccc(Cl)cc2Cl)n1 [CHIR 99021]
- overall result of use in ES cell culture [2]: Good results
- promotion of self renewal of ES cells [2]: promote self renewal of ES cells
- E14.1A ES cells weaned off feeder cells (FIG. 1) ([2]; LIF+CHIR99021 with serum): weaned off feeder cells and grown
- self renewal of mouse ES cells ([2]; combination with LIF in a serum-free, fully defined medium): improved self renewal of mouse ES cells with very little differentiation
- specificity for GSK3 [3]: specific for GSK3

Molecule: bFGF: FGF receptor agonist
- sustaining human ES cell self-renewal ([4]; N2B27 medium with bFGF (10 ng/ml), on HS27 human foreskin fibroblast feeder cells): could sustain human ES cell self-renewal
- growth of human ES cells in feeder-free, conditioned medium-free conditions ([5]; N2B27 with bFGF, on laminin, fibronectin, vitronectin or matrigel): grew in feeder-free and conditioned medium-free conditions

Molecule: O=C1NC(=O)C(c2ccccc2[N+](=O)[O-])=C1Nc1ccc(O)c(Cl)c1 [SB415286]
- promotion of self renewal of ES cells [2]: promote self renewal of ES cells

B1: BMP4: agonist of the TGF-β superfamily (protein, UniProt P12644 293-408, looked up)
Bone morphogenetic protein 4: SPKHHSQRARKKNKNCRRHSLYVDFSDVGWNDWIVAPPGYQAFYCHGDCPFPLADHLNSTNHAIVQTLVNSVNSSIPKACCVPTELSAISMLYLDEYDKVVLKNYQEMVVEGCGCR
- sustaining human ES cell self-renewal [4, 6]: could sustain human ES cell self-renewal
- growth of human ES cells in feeder-free, conditioned medium-free conditions ([5]; N2B27 with BMP4 (5 ng/ml) as well as bFGF): grew in feeder-free and conditioned medium-free conditions
